The values that follow are results of earlier work, collected in publication PMC10855781 (International Journal of Molecular Sciences, 2024).

“Also recorded” adds a separate entry of the source. Read-outs that look alike come from different tables or passages of the source.

Series [1] concerns human colorectal adenocarcinoma (HT-29). The note with it: Table 2; ref [75]. An excerpt: Table 2 Comparative study of cytotoxic effects and cardiotoxicity elicited by selected GnRH-based anthracycline conjugates. || Table 3 In vivo tumor growth inhibition of a few relevant Dau-GnRH-III conjugates. | column: Cytostatic Effect (IC50: μM) on HT-29 cells
Series [2] has as its system human breast adenocarcinoma (MCF-7). The note with it: ref [75]. An excerpt: Table 2 Comparative study of cytotoxic effects and cardiotoxicity elicited by selected GnRH-based anthracycline conjugates. | column: IC50 Values (μM)
For series [3], the system named is human umbilical vein endothelial cells (HUVEC). Further details: key: 0: no cardiotoxicity; +: weak; ++: moderate; +++: strong cardiotoxicity. The note with it: long-term (0–72 h) cytotoxic effect, impedimetric; ref [75]. An excerpt: Table 2 Comparative study of cytotoxic effects and cardiotoxicity elicited by selected GnRH-based anthracycline conjugates. | column: Cardiotoxicity

The test system of series [4] is Human cardiac myocytes (HCM). Further details: key: 0: no cardiotoxicity; +: weak; ++: moderate; +++: strong cardiotoxicity. The note with it: long-term (0–72 h) cytotoxic effect, impedimetric; ref [75]. An excerpt:
Table 2 Comparative study of cytotoxic effects and cardiotoxicity elicited by selected GnRH-based anthracycline conjugates. | column: Cardiotoxicity || The main drug-related toxic side effect of anthracyclines is cardiotoxicity, leading to cardiomyopathy and heart failure. Comparative experiments to determine the cardiotoxicity of peptide–anthracycline conjugates with different linkages might be informative for the other conjugates with different types of drugs as well. For this purpose, human cardiomyocytes (HCM) and human umbilical vein endothelial cells (HUVEC) were used as models. The long-term (0–72 h) cytotoxic effect of sixteen GnRH-based conjugates containing Dox and Dau was determined by real-time impedimetric sensing using th ...

For series [5] the following is noted: lysosomal homogenate; Dau=Aoa-Gly-OH, Dau=Aoa-Gly-Phe-OH, H-Lys(Dau=Aoa)-OH; ref [110].
The subject of series [6] is PANC-1 (human pancreas adenocarcinoma). The note with it: 10 μM, 72 h treatment, ref [110]. As for the experimental part: (§1) We assessed a modified version of this peptide as a homing device, where Cys was replaced by Ser because the thiol group is not necessary to introduce an oxime linkage. […] Using this conjugate at 10 μM concentration, the cell viability of the PANC-1 cells was 0.1% after a 72 h treatment. In contrast, the cell viability of normal human dermal fibroblast (NHDF), a model of healthy cells, was roughly 75%, showing a significa ...

Series [7] has as its system normal human dermal fibroblast (NHDF). The note with it: 10 μM, 72 h treatment, ref [110]. As for the experimental part:
as §1

Series [8] deals with PANC-1 tumor. Particulars: ref [110]; for tumor growth inhibition by tumor volume: eighteen treatments, day 74. As for the experimental part: The in vivo tumor growth inhibitory effect of the conjugate and free Dau was investigated on s.c.-developed PANC-1 tumor-bearing SCID female mice. The free drug was applied once a week at a maximum tolerated dose of 1 mg/kg body weight (three treatments), while the conjugate was administered, on average, three times per a week either at a 2 mg/kg or 10 mg/kg dose, calculated as per the Dau content (eighteen treatments altogether). The first treatment was given on day 10 after tumor inoculation. After the third treatment with free Dau, the animals lost 20% of their weight; therefore, the mice i ...

A short description of series [9]: lysosomal homogenate. Particulars: up to 72 h.
A short description of series [10]: rat liver lysosomal homogenate. The note with it: up to 6 h.
For series [11], the system named is PC3 cells. The note with it: ref [84], read-out: cytostatic effect (IC50). An excerpt:
(§2) Table 4 In vitro and in vivo activity of bombesin analog–daunomycin conjugates on PC3 cells. | column: L1: Dau=Aoa-LRRY- […]le-NH2; L5: Dau=Aoa-LRRY- fQWAVGHStaL-NH2; L6: Dau=Aoa-LRRY- fQWAVβAlaHStaNle-NH2

Series [12] relates to PC3 cancer cell lines. The note with it: PC3, 1.5 h incubation; concentration for internalization of 50% of the conjugate in living cells; ref [84]; read-out: cellular uptake (UC50).
Excerpt: as §2

Series [13] has as its system PC-3 human prostatic adenocarcinoma. Further details: method as in PMID 36834815. Particulars: s.c. PC-3, ref [84]. An excerpt:
This 14-mer peptide (Glp-[…]NH2), first discovered in the skin of the frog Bombina bombina, is associated with the gastrin-releasing peptide (GRP) as a mammalian counterpart. The bombesin receptor family comprises neuromedin receptor B (NMB-R, or BB1), gastrin-releasing peptide receptor (GRP-R, or BB2) and bombesin receptor subtype 3 (BRS-3, or BB3). Among them, GRP-R has been the most investig ...

Series [14] has as its system HT-29 tumor. The note with it: mouse, in vivo. As for the experimental part: In our group, we synthesized conjugates based on a heptapeptide (VHLGYAT) selected by Zhang et al. and tested them on HT-29 human colon adenocarcinoma. Since sequence modification may result in different oxime-linked Dau-amino acid fragments, a cathepsin B- labile spacer was incorporated to the N-terminal of the homing peptide. From the parent compound (Dau=Aoa-LRRY-VHLGYAT-NH2), the potential positions that can be substituted were selected using Ala-scan. […] Statistical analysis was performed by Mann-Whitney test. *, ** and *** mean significant at p < 0.05, p < 0.01 and p < 0.001, respectively. Adapted with permission from ref. [18]. 2019, Elsevier. TEXT PRINTED IN THE PICTURE: (a) Dau: Tumour weight (g): 16% | (a) Parent: Tumour weight (g): 35% | (a) G/F exchange: Tumour weight (g): 11% | (b) Dau: Liver weight (g): 72% | (b) Parent: Liver weight (g): 101% | (b) G/F exchange: Liver weight (g): 90% | (c) Dau: Prol ...

Series [15] concerns different cancer cell lines, e.g. HT-29. Particulars: ref [18]. An excerpt:
In our group, we synthesized conjugates based on a heptapeptide (VHLGYAT) selected by Zhang et al. and tested them on HT-29 human colon adenocarcinoma. Since sequence modification may result in different oxime-linked Dau-amino acid fragments, a cathepsin B- labile spacer was incorporated to the N-terminal of the homing peptide. From the parent compound (Dau=Aoa-LRRY-VHLGYAT-NH2), the potential positions that can be substituted were selected using Ala-scan.

What is called IC50 is the concentration at which inhibition is half-maximal. `COc1cccc2c1C(=O)c1c(O)c3c(c(O)c1C2=O)C[C@@](O)(C(=O)CO)C[C@@H]3O[C@H]1C[C@H](N)[C@H](O)[C@H](C)O1` [doxorubicin (Dox), doxorubicin]: the IC50 in [1] and in series [2] was 0.1 µM throughout. Moreover, the “Cardiotoxicity, HUVEC” value in series [3] is recorded as “+++”. The “Cardiotoxicity, HCM” value in series [4] was “+++”.
One may read the cell viability as a read-out of living cells in per cent, often relative to untreated cells. In the case of “Dau=Aoa-GFLG-K(Dau=Aoa)SKAAKN-OH [listing 1 of 2 here]”, in series [5], the “time of release of three drug-containing metabolites” value is on record as at most 72 h. Moreover, the cell viability was 0.1% in [6] and “roughly 75%” in series [7]. In addition, the “tumor growth inhibition by tumor volume” value is 14% in series [8] (2 mg/kg (Dau content)) and 32.2% in series [8] (10 mg/kg (Dau content)). Also, the tumor weight reduction in [8] (2 mg/kg (Dau content)) is given as 27.3%; in series [8] (10 mg/kg (Dau content)) it was 30.4%. The toxic side effects result in series [8] (2 or 10 mg/kg Dau content) is “No toxic side effects”. For the same compound, the “highest tumor inhibition rate” value in series [8] (day 67, after 16 treatments, dose not stated) was 43%.
With “Dau=Aoa-GFLG-K(Dau=Aoa)SKAAKN-OH [listing 2 of 2 here]”, the fragment found result in series [9] is “Dau=Aoa-Gly-Phe-OH, within 72 h; also recorded: H-Lys(Dau=Aoa)-OH, within 72 h”.
On to Dau=Aoa-LRRY- QWAVGHLNle-NH2, for which the fragment found entry in [10] is “Dau=Aoa-Leu-OH, less than 30 min”.
Take Dau=Aoa-LRRY- QWAVGHLNle-NH2 [L1]: the 50% inhibitory concentration (IC50) in [11] is 4.38 ± 0.33 µM. For the same compound, in series [12], the EC50 was 22.9 µM.
On to Dau=Aoa-LRRY- fQWAVGHStaL-NH2, for which the fragment found entry in [10] is reported as “Dau=Aoa-Leu-OH, less than 30 min”.
Turning to Dau=Aoa-LRRY- fQWAVβAlaHStaNle-NH2, the fragment found entry in [10] is on record as “Dau=Aoa-Leu-OH, less than 30 min”.
In the case of Dau=Aoa-LRRY- fQWAVβAlaHStaNle-NH2 [L6], the IC50 in [11] was 18 ± 3.01 µM. The EC50 in series [12] is 16.1 µM. The tumor volume inhibition in [13] (i.p. 10 mg Dau-content/kg every fifth day from day 9, five treatments, day 33, Dau 1 mg/kg, terminated day 26) was 31.4%. The tumor weight inhibition in series [13] (i.p. 10 mg Dau-content/kg, five treatments, day 33) is listed as 33.1%. Besides, the “tumor DT enhancement” value in series [13] (tumor doubling time, 10 mg Dau-content/kg) is 11.5%.
Dau=Aoa-LRRY-VHLFYAT-NH2: the “Liver weight, percent label in Figure 5b” value in series [14] was 90%. Besides, the “in vitro cytostasis, times higher activity than the parent conjugate” value in [15] (different cancer cell lines) was 2–5 times; in series [15] (on HT-29) it was “up to 2.6 times”.
Take N-O-CH2-CO-TFFYGGSRGKRNNFKTEEY-CONH2: the fragment found entry in [9] is on record as “Dau=Aoa-Thr-OH, major, within 1 h”.
As to NH2-TFFYGGSRGKRNNFKTEEY-CONH2, in [9], the fragment found entry is listed as “H-Lys(Dau=Aoa)-OH, major, within 1 h”.
